In ChEMBL document CHEMBL1201862, “PubChem BioAssay data set” (2004):
Calls of active or inactive are those of the source.

Key:
cells [1] = format: functional, cell-based
cells [2] = format: functional, cell-based; remark: listed apart in the source
[3] = biological target: Eukaryotic translation initiation factor 4E (Mus musculus, UniProt P63073); assay: blockers of eIF4G binding by eIF4E – biochemical, TR-FRET, dose response (AID 855); format: functional;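 note: potency for disrupting eIF4E binding to eIF4GI seen as loss of FRET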
Eukaryotic translation initiation factor 4E, sequence (P63073 whole entry): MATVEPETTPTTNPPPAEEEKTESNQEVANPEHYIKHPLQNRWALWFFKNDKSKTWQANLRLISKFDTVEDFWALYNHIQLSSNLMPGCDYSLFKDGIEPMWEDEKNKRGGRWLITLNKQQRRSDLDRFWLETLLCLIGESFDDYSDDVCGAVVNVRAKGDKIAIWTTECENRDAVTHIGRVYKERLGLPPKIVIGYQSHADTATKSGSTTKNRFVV

[4] = microbe, parasite or virus in culture; format: functional; conditions: Mycobacterium tuberculosis
[5] = biological target: T1, Corticotropin-releasing factor receptor 2/Corticotropin-releasing factor-binding protein (Homo sapiens, UniProt P24387+Q13324); assay: activators of CRF receptor 2 with binding protein – uHTS hits, confirmation (AID 602473); format: functional; conditions: read-out: EC50_Mean
T1 sequence (Q13324 whole entry): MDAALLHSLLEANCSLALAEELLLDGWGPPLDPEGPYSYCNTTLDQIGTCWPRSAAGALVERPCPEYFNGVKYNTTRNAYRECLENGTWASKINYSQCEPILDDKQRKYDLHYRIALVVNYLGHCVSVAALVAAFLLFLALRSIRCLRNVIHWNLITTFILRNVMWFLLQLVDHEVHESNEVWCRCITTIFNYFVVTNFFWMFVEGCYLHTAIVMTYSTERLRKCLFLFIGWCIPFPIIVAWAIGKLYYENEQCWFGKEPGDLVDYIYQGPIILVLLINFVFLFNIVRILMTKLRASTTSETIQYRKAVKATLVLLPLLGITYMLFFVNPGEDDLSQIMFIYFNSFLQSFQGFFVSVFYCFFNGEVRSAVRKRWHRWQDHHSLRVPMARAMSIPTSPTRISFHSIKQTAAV
T1 sequence (P24387 whole entry): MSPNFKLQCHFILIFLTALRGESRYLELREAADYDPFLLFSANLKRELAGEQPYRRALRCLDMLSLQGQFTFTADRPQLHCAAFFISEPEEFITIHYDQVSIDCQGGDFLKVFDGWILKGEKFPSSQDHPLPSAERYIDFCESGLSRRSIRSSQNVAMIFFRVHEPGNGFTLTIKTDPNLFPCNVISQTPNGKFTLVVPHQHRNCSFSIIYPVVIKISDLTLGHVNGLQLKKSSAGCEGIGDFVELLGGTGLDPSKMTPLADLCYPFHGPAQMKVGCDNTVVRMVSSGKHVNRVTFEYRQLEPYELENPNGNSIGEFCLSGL

[6] = biological target: T2, Carboxy-terminal domain RNA polymerase II polypeptide A small phosphatase 1 (Homo sapiens, UniProt Q9GZU7); assay: CTDSP1 inhibitors, concentration-response, biochemical, absorbance readout, ultra-high-throughput screen actives (AID 540297); format: functional
T2 sequence (Q9GZU7 whole entry): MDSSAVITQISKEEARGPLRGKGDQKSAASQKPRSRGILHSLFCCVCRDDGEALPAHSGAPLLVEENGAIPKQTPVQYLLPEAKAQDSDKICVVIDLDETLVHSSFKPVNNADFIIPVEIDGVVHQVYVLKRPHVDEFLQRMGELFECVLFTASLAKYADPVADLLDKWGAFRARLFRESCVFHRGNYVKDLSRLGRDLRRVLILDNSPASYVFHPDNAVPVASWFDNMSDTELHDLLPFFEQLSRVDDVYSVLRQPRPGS

Streptococcus = assay: GAS UMAA2166 growth inhibition – luminescence, BacTiterGlo, counter-screen for streptokinase expression inhibitor project, dose response (AID 1915); format: functional, organism-based;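 note: potency for reduction of bacterial viability or growth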
[7] = test system: Streptococcus sp. 'group A'; assay: Streptococcus pyogenes SK(-)GAS viability under kanamycin – luminescence, BacTiterGlo, confirmation, counter-screen for streptokinase expression inhibitor project, dose response (AID 1900); format: functional, organism-based; conditions: read-out: EC50
cells [8] = format: functional
[9] = P. falciparum Dd2 growth inhibitors, dose response, SYBR Green, cherry-picked samples (AID 1159567); format: functional, cell-based
Paired box protein Pax-8 = Paired box protein Pax-8 (Homo sapiens, UniProt Q06710); assay: PAX8 transcriptional activity inhibition in RMG-I – RMG-I cells, luciferase, cherry-pick, dose response (AID 687027); format: functional, cell-based;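 note: luciferase reporter driven by Pax8 target thyroperoxidase promoter measured by SteadyGlo luminescence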
Paired box protein Pax-8, sequence (Q06710 whole entry): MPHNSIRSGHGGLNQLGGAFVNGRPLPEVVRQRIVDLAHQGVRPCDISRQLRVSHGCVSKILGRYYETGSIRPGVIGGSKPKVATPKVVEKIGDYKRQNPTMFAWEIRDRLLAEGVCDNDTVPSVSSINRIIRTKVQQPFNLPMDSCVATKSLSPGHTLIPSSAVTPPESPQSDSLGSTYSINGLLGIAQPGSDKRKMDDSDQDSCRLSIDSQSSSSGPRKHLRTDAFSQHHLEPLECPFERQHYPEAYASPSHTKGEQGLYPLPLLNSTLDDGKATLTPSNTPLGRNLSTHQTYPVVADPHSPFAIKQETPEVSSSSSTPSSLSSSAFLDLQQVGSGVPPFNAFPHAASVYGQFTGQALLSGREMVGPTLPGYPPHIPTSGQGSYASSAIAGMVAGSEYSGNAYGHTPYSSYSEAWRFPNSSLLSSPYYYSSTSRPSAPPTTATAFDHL

[10] = viability of HCT116 lacking mutant beta-catenin – cell-based, human colon tumor, dose response (AID 1045); format: functional;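 note: HCT116 colon tumor cells with beta catenin knocked out; cells exposed to compound for 60 hours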
[11] = viability of PTEN-deleted HCT116 cells – cell-based, HCT116 PTEN knockout, dose response (AID 1047); format: functional;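 note: HCT116 colon tumor cells with PTEN knocked out; cells exposed to compound for 60 hours before readout; potency for loss of cell viability measured by luminescence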
Streptokinase A = biological target: T3, Streptokinase A (Streptococcus pyogenes serotype M1, UniProt P10520); assay: viability-normalized secreted streptokinase activity reduction – plasminogen activation absorbance, OD405, dose response (AID 1914); format: functional, Streptococcus pyogenes M1 GAS;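 note: secreted streptokinase activity via plasminogen activation per viability signal from cell pellet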
T3 sequence (P10520 whole entry): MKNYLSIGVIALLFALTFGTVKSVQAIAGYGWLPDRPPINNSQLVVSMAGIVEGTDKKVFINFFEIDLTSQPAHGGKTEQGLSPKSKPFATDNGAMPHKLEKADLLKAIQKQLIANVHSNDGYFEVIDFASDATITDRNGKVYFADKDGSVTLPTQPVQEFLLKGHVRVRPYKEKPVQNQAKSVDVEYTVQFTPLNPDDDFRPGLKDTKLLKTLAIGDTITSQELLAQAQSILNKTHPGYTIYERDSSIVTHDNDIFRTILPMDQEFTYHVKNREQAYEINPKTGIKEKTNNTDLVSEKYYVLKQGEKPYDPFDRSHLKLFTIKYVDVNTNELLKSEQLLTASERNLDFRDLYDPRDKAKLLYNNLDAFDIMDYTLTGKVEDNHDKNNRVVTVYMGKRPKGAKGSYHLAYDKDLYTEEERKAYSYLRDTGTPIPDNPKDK

[12] = blockers of HIV-1 envelope-mediated cell-cell fusion – cherry-pick, dose response (AID 652057); format: functional, cell-based
[13] = blockers of HIV-1 ZM109 envelope-driven cell-cell fusion – HeLa effector, CEM target cells, luciferase, cherry-pick, dose response (AID 652058); format: functional, cell-based;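 note: luciferase signal from HIV-1 Env mediated cell-cell fusion of effector and target cells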
[14] = HIV-1 AD8 envelope cell-cell fusion blockers – cherry-pick, dose response (AID 652062); format: functional, cell-based;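 note: luciferase signal from cell-cell fusion driven by HIV-1 clade B AD8 Env; potency is for inhibitors of fusion seen as a drop in luminescence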
[15] = Trypanosoma cruzi growth suppression in host cells – NIH3T3 host cells, beta-gal luminescence, confirmation (AID 2044); format: functional, cell-based;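 note: intracellular parasites grown in NIH/3T3 mouse fibroblasts as host cells; luminescent beta-galactosidase reporter signal from transgenic T. cruzi replicating inside host cells; inhibitors lower the luminescence signal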
[16] = Luminescence Cell-Based Dose Retest to Confirm Inhibitors of Cancer Stem Cells. [Related pubchem assays (depositor defined):AID2717, AID2721]; format: functional, Homo sapiens; conditions: Homo sapiens
[17] = NIH3T3 cell viability loss – ATP luminescence, mouse fibroblasts, counter-screen, dose response (AID 2010); format: functional, cell-based;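 note: cells exposed to compound for about 90 hours before reading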
[18] = non-specific 3'UTR reporter inhibition in Clone20-Shn3RL – cell-based, Renilla luciferase, cherry-picked, counter-screen for Shn3 inhibitor project, dose response (AID 624133); format: functional
[19] = reduction of Shn3 3'UTR-driven luciferase in osteoblasts – cell-based, Clone20 osteoblasts, firefly luciferase, cherry-picked, dose response (AID 624132); format: functional;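 note: firefly luciferase luminescence from reporter carrying the Shn3 3'UTR in osteoblasts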
[20] = Luminescence Cell-Based Dose Response HTS to Identify Inhibitors of 5'UTR Stem-Loop Driven Prion Protein mRNA Translation in H4 Neuroglioblastoma Cells. [Related pubchem assays: 1827 (Project Summary), 1813 (Primary HTS)]; format: functional
[21] = alpha-synuclein stem-loop luciferase translation blockers – H4 neuroglioma cells, luminescence, confirmation (AID 1988); format: functional, cell-based
[22] = luciferase reporter signal suppression in cells – H4 neuroglioma cells, luminescence, dose response (AID 1990); format: functional, cell-based
[23] = biological target: Induced myeloid leukemia cell differentiation protein Mcl-1 (Homo sapiens, UniProt Q07820); format: functional
Induced myeloid leukemia cell differentiation protein Mcl-1, sequence (Q07820 whole entry): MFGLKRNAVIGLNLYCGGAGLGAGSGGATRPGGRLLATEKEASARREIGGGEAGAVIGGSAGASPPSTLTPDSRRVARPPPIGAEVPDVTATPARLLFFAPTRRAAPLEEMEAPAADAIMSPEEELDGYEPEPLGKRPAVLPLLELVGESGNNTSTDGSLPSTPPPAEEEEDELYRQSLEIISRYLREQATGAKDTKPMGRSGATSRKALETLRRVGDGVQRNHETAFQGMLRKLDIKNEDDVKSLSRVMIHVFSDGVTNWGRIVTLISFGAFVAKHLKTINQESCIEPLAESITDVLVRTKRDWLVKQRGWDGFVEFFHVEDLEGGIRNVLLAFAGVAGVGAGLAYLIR

INS1 = assay: INS-1E survival protection against cytokine death – cell-based, luminescence, retest, dose response (AID 449756); format: functional; conditions: Rattus norvegicus;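 note: cell death triggered by IL-1 beta plus TNF-alpha plus IFN-gamma mixture; protective hits raise ATP signal compared with cytokine alone wells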

O=C(NCc1ccco1)c1cc(-c2ccccc2)on1
EC50 (cells [1]): > 350 µM (not active) | EC50 (cells [2]): 62.4 µM (active)

CCOC(=O)c1c(-c2cccc([N+](=O)[O-])c2)csc1NC(=O)CCCOc1ccccc1
IC50 [3]: > 64 µM (inactive)

CCOC(=O)c1[nH]c(CN2CCN(c3ccc(OC)cc3)CC2)c(C(=O)OCC)c1C
CC50 [4]: > 40 µM (active)

O=c1c(/C=C(\O)c2ccc(F)cc2)nc2ccccc2n1-c1ccccc1
EC50 [5]: 7.18 µM (active)

O=C(c1ccc([N+](=O)[O-])cc1)c1cc2ccc(O)cc2oc1=O
IC50 [6]: 10.8 µM (active)

O=C(Nc1nnc(C2=COCCO2)o1)c1ccc(Cc2ccccc2)cc1
EC50 (Streptococcus): 3.96 µM (active) | EC50 [7]: 2.54 µM (active) | IC50 (cells [8]): 10.2 µM (active) | CC50 [4]: > 40 µM (active)

C[C@H](CO)N1C[C@H](C)[C@H](CN(C)CC2CC2)Oc2ccc(NS(=O)(=O)c3ccc(Cl)cc3)cc2CC1=O
AC50 [9]: 5.58 µM (active)

C[C@H]1CN([C@@H](C)CO)S(=O)(=O)c2ccc(C#Cc3ccccc3F)cc2O[C@H]1CN(C)C(=O)c1ccc2c(c1)OCO2
AC50 [9]: 5.07 µM (active) | AC50 (Paired box protein Pax-8): 5.76 µM (active)

COc1cc(/C=N/NC2=NC(=O)C(CC(=O)O)S2)ccc1OCc1ccc(Cl)cc1 (stereo unspecified)
IC50 [6]: 12.4 µM (active)

COc1ccc2o/c(=N\c3ccccc3)c(-c3nc4ccccc4[nH]3)cc2c1
EC50 [10]: 2.59 µM (active) | EC50 [11]: 2.22 µM (active)

COc1cc(NC(=O)c2ccccc2)c(OC)cc1NC(=O)Cc1cccs1
IC50 [6]: 3.86 µM (active) | IC50 [3]: 50 µM (inactive)

O=C(NC(=S)N1CCc2ccccc21)c1ccc(Br)o1
CC50 [4]: 39.7 µM (active)

COc1ccc(CC(=O)Nc2ccc(-c3noc(-c4ccc(Cl)cc4)n3)cc2)cc1
EC50 [10]: 1.69 µM (active) | EC50 [11]: 2.11 µM (active)

COc1ccc2[nH]c(=O)c(CN(CCN3CCCC3)C(=O)Nc3ccccc3Cl)cc2c1
IC50 [3]: > 64 µM (inactive)

CC(C)CN1C(=S)SC(C)(C)C1n1oc(=O)n(-c2ccc(Cl)cc2)c1=O (stereo unspecified)
EC50 (Streptokinase A): 5.59 µM (active) | EC50 (Streptococcus): 18.8 µM (active) | EC50 [7]: 4.36 µM (active) | EC50 [10]: 20.7 µM (active) | EC50 [11]: 21.9 µM (active)

N#C[C@@H]1[C@@H](c2ccc(C#CC3CCCCC3)cc2)[C@H](CO)N1C(=O)Nc1ccc(F)cc1
AC50 [9]: 5.12 µM (active)

CCCNC(=O)C[C@H]1CC[C@@H]2[C@@H](COc3ccc(NC(=O)c4cccc(C(F)(F)F)c4)cc3C(=O)N2C)O1
AC50 [12]: 36 µM (active) | AC50 [13]: 5.51 µM (active) | AC50 [14]: 12.7 µM (active)

CSc1ccc(/C=N/NC(=O)c2ccc(C)c(C)c2)cc1
IC50 [6]: 9.17 µM (active)

CCOC(=O)/C(=N/Nc1ccccc1)c1csc(Nc2ccccc2)n1
EC50 [15]: 1.39 µM (active) | AC50 [16]: 1.88 µM (active) | EC50 (Streptokinase A): > 150 µM (not active) | EC50 (Streptococcus): 4.88 µM (active) | EC50 [7]: 3.92 µM (active) | EC50 [17]: > 30 µM (not active) | CC50 [4]: > 40 µM (active)

CCCCC(=O)Nc1ccc2oc(-c3ccncc3)nc2c1
IC50 [3]: > 64 µM (inactive)

COc1ccc(C(=O)Nc2ccccc2C(N)=O)cc1
IC50 [3]: > 64 µM (inactive)

CC(=O)O[C@H]1CC[C@@]2(C)C(=CC[C@H]3[C@@H]4CC[C@H](C(C)=O)[C@@]4(C)CC[C@@H]32)C1
AC50 [18]: 29 µM (active) | AC50 [19]: 28.5 µM (active)

CCN1C(NCCc2ccc(Br)cc2)=N[C@@H](c2ccccc2)[C@H](C(=O)OC)[C@H]1C
CC50 [4]: 34.3 µM (active)

CCCOC(=O)c1ccc(OCC(O)CN2CCN(C(=O)c3ccccc3)CC2)cc1 (stereo unspecified)
IC50 [3]: > 64 µM (inactive)

COc1ccc2c(c1OC)C(=O)N1c3ccccc3C(=O)N(c3ccccc3F)C21 (stereo unspecified)
EC50 [20]: 13.1 µM (active) | EC50 [21]: 12 µM (active) | EC50 [22]: > 120 µM (not active) | AC50 [19]: 11.6 µM (active)

NNc1nc2ccc(Cl)cc2s1
CC50 [4]: > 40 µM (active)

COc1ccccc1NC(=S)NC(=O)Cc1ccc(Cl)cc1
EC50 [5]: 9.41 µM (active)

C[C@H](CO)N1C[C@H](C)[C@@H](CN(C)Cc2ccc(Cl)c(Cl)c2)Oc2ccc(N(C)C)cc2C1=O
AC50 [12]: 10.5 µM (active) | AC50 [13]: 5.9 µM (active) | AC50 [14]: 8.23 µM (active)

COC(=O)[C@@]1(Cc2ccccc2)[C@H]2c3cc(C(=O)N4CCCC4)n(CCSCCO)c3C[C@H]2CN1C(=O)c1ccccc1
IC50 [23]: 1.87 µM (not active)

O=C1c2ccccc2C(=O)N1/N=C/c1ccc(O)c(O)c1O
IC50 [23]: 2.28 µM (active)

O=C(CCS(=O)(=O)c1ccc(Br)cc1)NCc1ccc(F)cc1
IC50 [6]: 7.9 µM (active)

CC(C)c1cc(C(=O)Nc2cccc(Cl)c2)no1
IC50 [3]: > 64 µM (inactive)

COCC(=O)Nc1ccc2c(c1)C(=O)N(C)C[C@@H](OC)[C@H](C)CN(CC1CCCCC1)[C@@H](C)CO2
AC50 [9]: 6.65 µM (active)

C=CCNc1oc(-c2ccc(-c3ccccc3)cc2)nc1C#N
CC50 [4]: > 40 µM (active)

Cc1ccc2nc(N3C(=O)C(O)=C(C(=O)c4cc5ccccc5o4)C3c3cccs3)sc2c1 (stereo unspecified)
EC50 (Streptococcus): 7.6 µM (active) | EC50 [7]: 1.39 µM (active) | IC50 [23]: 2.37 µM (active)

O=C(CCS(=O)(=O)c1cccc2nsnc12)NCc1ccccc1Cl
IC50 [3]: > 64 µM (inactive)

C[C@@H](O)C1NC(=O)[C@H](CCCCN)NC(=O)c2cc([N+](=O)[O-])cc(I)c2NCCC[C@@H](C(N)=O)NC1=O (stereo partly specified)
IC50 [3]: > 64 µM (inactive)

CCCCCCc1cc2cc(C(=O)Nc3cccc(OC)c3)c(=O)oc2cc1O
EC50 [20]: 65.8 µM (active) | AC50 (INS1): 4.06 µM (active) | EC50 [21]: 16.6 µM (active) | EC50 [5]: > 53 µM (inactive) | EC50 [22]: > 120 µM (not active)

COC(=O)CNC(=O)COC(=O)C(Cc1ccccc1)NC(=O)c1ccco1 (stereo unspecified)
EC50 [5]: > 53 µM (inactive)
